Laboratory results taken from patent US10689401B2, “C5-C6-oxacyclic fused iminothiazine dioxide compounds bearing an ether linker as BACE inhibitors, compositions, and their use” (Merck Sharp & Dohme Corp., priority 2016, dated 2020).

Columns and labels:
[1] = target: Recombinant human soluble BACE1 catalytic domain (Homo sapiens (Human), UniProt P56817); test: BACE1 HTRF FRET Assay; assay type: biochemical; settings: Ki calculated from IC50 using the Cheng-Prusoff equation; QSY7-APPswe-Eu substrate, pH 5.0; read-out: BACE-1 Ki
Excerpt: Reagents: Na^+-Acetate pH 5.0; 1% Brij-35; Glycerol; Dimethyl Sulfoxide (DMSO); Recombinant human soluble BACE1 catalytic domain (>95% pure); APP Swedish mutant peptide substrate (QSY7-APP^swe-Eu): QSY7-EISEVNLDAEFC-Europium-amide.
A homogeneous time-resolved FRET assay can be used to determine IC50 values for inhibitors of the soluble human BACE1 catalytic domain. This assay monitors the increase of 620 nm fluorescence that resulted from BACE1 cleavage of an APPswedish APP^swe mutant peptide FRET substrate (QSY7-EISEVNLDAEFC-Europium-amide). This substrate contains an N-terminal QSY7 moiety that serves as a quencher of the C-terminal Europium fluorophore (620 nm Em). In the absence of enzyme activity, 620 nm fluorescence is low in the assay and increased linearly over 3 hours in the presence of uninhibited BACE1 enzyme. Inhibition of BACE1 cleavage of the QSY7-APP^swe-Eu substrate by inhibitors is manifested as a suppression of 620 nm fluorescence.
Varying concentrations of inhibitors at 3× the final desired concentration in a volume of 10 ul are preincubated with purified human BACE1 catalytic domain (3 nM in 10 μl) for 30 minutes at 30° C. in reaction buffer containing 20 mM Na-Acetate pH 5.0, 10% glycerol, 0.1% Brij-35 and 7.5% DSMO. Reactions are initiated by addition of 10 μl of 600 nM QSY7-APP^swe-Eu substrate (200 nM final) to give a final reaction volume of 30 μl in a 384 well Nunc HTRF plate. The reactions are incubated at 30° C. for 1.5 hours. The 620 nm fluorescence is then read on a Rubystar HTRF plate reader (BMG Labtechnologies) using a 50 millisecond delay followed by a 400 millisecond acquisition time window. Inhibitor IC50 values are derived from non-linear regression analysis of concentration response curves. Ki values are then calculated from IC50 values using the Cheng-Prusoff equation using a previously determined […] of 8 μM for the QSY7-APP^swe-Eu substrate at BACE1.

[2] = target: purified human autoBACE-2 (Homo sapiens (Human), UniProt Q9Y5Z0); test: BACE-2 Assay (BACE-HTRF assay); assay type: biochemical; settings: Ki calculated from IC50 using the Cheng-Prusoff equation; QSY7-EISEVNLDAEFC-Eu-amide substrate, pH 5.0
Method: Inhibitor IC50s at purified human autoBACE-2 are determined in a time-resolved endpoint proteolysis assay that measures hydrolysis of the QSY7-EISEVNLDAEFC-Eu-amide FRET peptide substrate (BACE-HTRF assay). BACE-mediated hydrolysis of this peptide results in an increase in relative fluorescence (RFU) at 620 nm after excitation with 320 nm light. Inhibitor compounds, prepared at 3× the desired final concentration in 1×BACE assay buffer (20 mM sodium acetate pH 5.0, 10% glycerol, 0.1% Brij-35) supplemented with 7.5% DMSO are preincubated with an equal volume of autoBACE-2 enzyme diluted in 1×BACE assay buffer (final enzyme concentration 1 nM) in black 384-well NUNC plates for 30 minutes at 30° C. […] DMSO is present at 5% final concentration in the assay. Following laser excitation of sample wells at 320 nm, the fluorescence signal at 620 nm is collected for 400 ms following a 50 μs delay on a RUBYstar HTRF plate reader (BMG Labtechnologies). Raw RFU data is normalized to maximum (1.0 nM BACE/DMSO) and minimum (no enzyme/DMSO) RFU values. IC50s are determined by nonlinear regression analysis (sigmoidal dose response, variable slope) of percent inhibition data with minimum and maximum values set to 0 and 100 percent respectively. Similar IC50s are obtained when using raw RFU data. The Ki values are calculated from the IC50 using the Cheng-Prusoff equation.

purified human autoBACE-2, sequence (Q9Y5Z0 63-518): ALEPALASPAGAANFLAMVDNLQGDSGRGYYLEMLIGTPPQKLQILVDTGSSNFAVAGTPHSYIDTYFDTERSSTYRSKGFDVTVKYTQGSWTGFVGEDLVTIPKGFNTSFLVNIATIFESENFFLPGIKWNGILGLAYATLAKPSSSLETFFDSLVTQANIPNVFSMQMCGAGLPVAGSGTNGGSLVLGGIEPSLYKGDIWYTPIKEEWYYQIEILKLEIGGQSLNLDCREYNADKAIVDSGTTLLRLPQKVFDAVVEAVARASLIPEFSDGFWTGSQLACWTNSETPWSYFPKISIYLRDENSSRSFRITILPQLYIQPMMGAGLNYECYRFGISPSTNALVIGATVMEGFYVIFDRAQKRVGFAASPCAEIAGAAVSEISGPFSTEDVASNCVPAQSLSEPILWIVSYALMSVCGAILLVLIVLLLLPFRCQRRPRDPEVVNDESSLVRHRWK
Recombinant human soluble BACE1 catalytic domain, sequence (P56817 75-416): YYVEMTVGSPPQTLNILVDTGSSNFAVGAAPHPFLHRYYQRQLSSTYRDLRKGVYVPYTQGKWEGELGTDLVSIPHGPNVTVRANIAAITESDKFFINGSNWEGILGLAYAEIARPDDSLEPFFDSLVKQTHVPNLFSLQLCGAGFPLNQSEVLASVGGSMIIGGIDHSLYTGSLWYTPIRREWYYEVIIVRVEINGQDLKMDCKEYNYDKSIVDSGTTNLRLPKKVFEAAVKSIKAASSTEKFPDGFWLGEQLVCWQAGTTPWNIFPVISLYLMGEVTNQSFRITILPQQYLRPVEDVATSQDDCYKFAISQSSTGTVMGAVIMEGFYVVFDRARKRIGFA

Compound | Ki [1] | Ki [2]
COc1ccc(F)c([C@]23CO[C@@H](c4ccc(F)cc4)C[C@H]2S(=O)(=O)C(C)(C)C(=N)N3)c1 [Example 12, (4aS,7R,8aR)-4a-(2-fluoro-5-methoxyphenyl)-7-(4-fluorophenyl)-3-imino-2,2-dimethyloctahydropyrano[4,3-b][1,4]thiazine 1,1-dioxide] | 184 nM | 96.3 nM
CC1(C)C(=N)N[C@@]2(c3cc(OCC4CC4)ccc3F)CO[C@@H](c3ccc(F)cc3)C[C@H]2S1(=O)=O [Example 13, (4aS,7R,8aR)-4a-(5-(cyclopropylmethoxy)-2-fluorophenyl)-7-(4-fluorophenyl)-3-imino-2,2-dimethyloctahydropyrano[4,3-b][1,4]thiazine 1,1-dioxide] | 115 nM | 11.7 nM
CC1(C)C(=N)N[C@@]2(c3cc(Oc4ncccc4F)ccc3F)CO[C@@H](c3ccc(F)cc3)C[C@H]2S1(=O)=O [Example 14, (4aS,7R,8aR)-4a-(2-fluoro-5-((3-fluoropyridin-2-yl)oxy)phenyl)-7-(4-fluorophenyl)-3-imino-2,2-dimethyloctahydropyrano[4,3-b][1,4]thiazine 1,1-dioxide] | 3.9 nM | 1.9 nM
CC1(C)C(=N)N[C@@]2(c3cc(Oc4cc(C#N)ccn4)ccc3F)CO[C@@H](c3ccc(F)cc3)C[C@H]2S1(=O)=O [Example 15, 2-(4-fluoro-3-((4aS,7R,8aR)-7-(4-fluorophenyl)-3-imino-2,2-dimethyl-1,1-dioxidooctahydropyrano[4,3-b][1,4]thiazin-4a-yl)phenoxy)isonicotinonitrile] | 17.9 nM | 19.8 nM
COc1ccc(F)c([C@]23CO[C@@H](CO)C[C@H]2S(=O)(=O)C(C)(C)C(=N)N3)c1 [Example 16, (4aS,7R,8aR)-4a-(2-fluoro-5-methoxyphenyl)-7-(hydroxymethyl)-3-imino-2,2-dimethyloctahydropyrano[4,3-b][1,4]thiazine 1,1-dioxide] | 2860 nM | 2020 nM
CC1(C)C[C@@H]2[C@](c3ccccc3F)(CO1)NC(=N)C(C)(C)S2(=O)=O [Example 17, (4aS,8aR)-4a-(2-fluorophenyl)-2,2,7,7-tetramethyltetrahydro-2H,5H-pyrano[4,3-b][1,4]thiazin-3(4H)-imine 1,1-dioxide] | 300 nM | 293 nM
CC1(C)C[C@@H]2[C@](c3cc(OC4CCC4)ccc3F)(CO1)NC(=N)C(C)(C)S2(=O)=O [Example 24] | 183 nM | 109 nM

Further lines, results first:

Ki [1] | Ki [2] | Compound
22.4 nM | 42.2 nM | CC1(C)C[C@@H]2[C@](c3cc(Oc4ncccc4F)ccc3F)(CO1)NC(=N)C(C)(C)S2(=O)=O [Example 18, (4aS,8aR)-4a-{2-fluoro-5-[(3-fluoropyridin-2-yl)oxy]phenyl}-2,2,7,7-tetramethyltetrahydro-2H,5H-pyrano[4,3-b][1,4]thiazin-3(4H)-imine 1,1-dioxide]
33.8 nM | 65.2 nM | CC1(C)C[C@@H]2[C@](c3cc(Oc4cc(C#N)ccn4)ccc3F)(CO1)NC(=N)C(C)(C)S2(=O)=O [Example 19]
53.2 nM | 102 nM | CC1(C)C[C@@H]2[C@](c3cc(Oc4ncc(F)cc4F)ccc3F)(CO1)NC(=N)C(C)(C)S2(=O)=O [Example 20, (4aS,8aR)-4a-{5-[(3,5-difluoropyridin-2-yl)oxy]-2-fluorophenyl}-2,2,7,7-tetramethyltetrahydro-2H,5H-pyrano[4,3-b][1,4]thiazin-3(4H)-imine 1,1-dioxide]
9.7 nM | 88 nM | CC1(C)C[C@@H]2[C@](c3cc(Oc4cc(F)cnc4F)ccc3F)(CO1)NC(=N)C(C)(C)S2(=O)=O [Example 21, (4aS,8aR)-4a-{5-[(2,5-difluoropyridin-3-yl)oxy]-2-fluorophenyl}-2,2,7,7-tetramethyltetrahydro-2H,5H-pyrano[4,3-b][1,4]thiazin-3(4H)-imine 1,1-dioxide]
120 nM | 35.6 nM | CC1(C)C[C@@H]2[C@](c3cc(OCC4CC4)ccc3F)(CO1)NC(=N)C(C)(C)S2(=O)=O [Example 22, (4aS,8aR)-4a-[5-(cyclopropylmethoxy)-2-fluorophenyl]-2,2,7,7-tetramethyltetrahydro-2H,5H-pyrano[4,3-b][1,4]thiazin-3(4H)-imine 1,1-dioxide]
172 nM | 66.7 nM | CC(C)COc1ccc(F)c([C@]23COC(C)(C)C[C@H]2S(=O)(=O)C(C)(C)C(=N)N3)c1 [Example 23, (4aS,8aR)-4a-[2-fluoro-5-(2-methylpropoxy)phenyl]-2,2,7,7-tetramethyltetrahydro-2H,5H-pyrano[4,3-b][1,4]thiazin-3(4H)-imine 1,1-dioxide]
185 nM | 195 nM | CC(C)[C@H]1C[C@@H]2[C@](c3ccccc3F)(CO1)NC(=N)C(C)(C)S2(=O)=O [Example 25, (4aS,7R,8aR)-4a-(2-fluorophenyl)-2,2-dimethyl-7-(propan-2-yl)tetrahydro-2H,5H-pyrano[4,3-b][1,4]thiazin-3(4H)-imine 1,1-dioxide]
